# Test results reported in the NIST ThermoML archive (doi:10.1016/j.jct.2013.01.013).
# Numbers after ± are expanded uncertainties.
# What was measured:
# [1] = 101 kPa, Liquid; for viscosity: Capillary tube (Ostwald / Ubbelohde) method; for speed of sound: Linear variable-path acoustic interferometer; for mass density: Pycnometric method
# [2] = xn = mol fraction of the nth substance listed; settings: 101 kPa, Liquid, x2 = 0; for viscosity: Capillary tube (Ostwald / Ubbelohde) method; for speed of sound: Linear variable-path acoustic interferometer; for mass density: Pycnometric method
compound,measurement,setting,value
"CC(=O)N(C)C [N,N-dimethylethanamide]",viscosity,[1]; 288.15 K,1.15 ± 0.0095 mPa·s
same,speed of sound,[1]; 288.15 K,1500.2 ± 1.6 m/s
same,mass density,[1]; 288.15 K,945.5 ± 0.27 kg/m3
same,viscosity,[1]; 293.15 K,1.038 ± 0.0086 mPa·s
same,speed of sound,[1]; 293.15 K,1482.6 ± 1.6 m/s
same,mass density,[1]; 293.15 K,941 ± 0.26 kg/m3
same,viscosity,[1]; 298.15 K,0.9443 ± 0.0079 mPa·s
same,speed of sound,[1]; 298.15 K,1462.1 ± 1.6 m/s
same,mass density,[1]; 298.15 K,936.5 ± 0.27 kg/m3
same,viscosity,[1]; 303.15 K,0.8792 ± 0.0075 mPa·s
same,speed of sound,[1]; 303.15 K,1441.8 ± 1.6 m/s
same,mass density,[1]; 303.15 K,932 ± 0.28 kg/m3
same,viscosity,[1]; 308.15 K,0.8179 ± 0.007 mPa·s
same,speed of sound,[1]; 308.15 K,1420.7 ± 1.6 m/s
same,mass density,[1]; 308.15 K,927.5 ± 0.29 kg/m3
same,viscosity,[1]; 313.15 K,0.7696 ± 0.0067 mPa·s
same,speed of sound,[1]; 313.15 K,1402.6 ± 1.6 m/s
same,mass density,[1]; 313.15 K,923 ± 0.3 kg/m3
same,viscosity,[1]; 318.15 K,0.7346 ± 0.0064 mPa·s
same,speed of sound,[1]; 318.15 K,1383.5 ± 1.5 m/s
same,mass density,[1]; 318.15 K,918.5 ± 0.31 kg/m3
"CC(=O)N(C)C [N,N-dimethylethanamide] + C=C(C)C(=O)OC",viscosity,[2]; 288.15 K,1.15 ± 0.0095 mPa·s
same,speed of sound,[2]; 288.15 K,1500.2 ± 1.6 m/s
same,mass density,[2]; 288.15 K,945.5 ± 0.27 kg/m3
same,viscosity,[2]; 293.15 K,1.038 ± 0.0086 mPa·s
same,speed of sound,[2]; 293.15 K,1482.6 ± 1.6 m/s
same,mass density,[2]; 293.15 K,941 ± 0.26 kg/m3
same,viscosity,[2]; 298.15 K,0.9443 ± 0.0079 mPa·s
same,speed of sound,[2]; 298.15 K,1462.1 ± 1.6 m/s
same,mass density,[2]; 298.15 K,936.5 ± 0.27 kg/m3
same,viscosity,[2]; 303.15 K,0.8792 ± 0.0075 mPa·s
same,speed of sound,[2]; 303.15 K,1441.8 ± 1.6 m/s
same,mass density,[2]; 303.15 K,932 ± 0.28 kg/m3
same,viscosity,[2]; 308.15 K,0.8179 ± 0.007 mPa·s
same,speed of sound,[2]; 308.15 K,1420.7 ± 1.6 m/s
same,mass density,[2]; 308.15 K,927.5 ± 0.29 kg/m3
same,viscosity,[2]; 313.15 K,0.7696 ± 0.0067 mPa·s
same,speed of sound,[2]; 313.15 K,1402.6 ± 1.6 m/s
same,mass density,[2]; 313.15 K,923 ± 0.3 kg/m3
same,viscosity,[2]; 318.15 K,0.7346 ± 0.0064 mPa·s
same,speed of sound,[2]; 318.15 K,1383.5 ± 1.5 m/s
same,mass density,[2]; 318.15 K,918.5 ± 0.31 kg/m3
CN(C)C=O [dimethylformamide],viscosity,[1]; 288.15 K,0.9452 ± 0.0081 mPa·s
same,speed of sound,[1]; 288.15 K,1503.3 ± 1.7 m/s
same,mass density,[1]; 288.15 K,953.61 ± 0.29 kg/m3
same,viscosity,[1]; 293.15 K,0.8685 ± 0.0075 mPa·s
same,speed of sound,[1]; 293.15 K,1485.8 ± 1.7 m/s
same,mass density,[1]; 293.15 K,949.1 ± 0.28 kg/m3
same,viscosity,[1]; 298.15 K,0.8123 ± 0.0071 mPa·s
same,speed of sound,[1]; 298.15 K,1469.5 ± 1.6 m/s
same,mass density,[1]; 298.15 K,944.6 ± 0.29 kg/m3
same,viscosity,[1]; 303.15 K,0.7647 ± 0.0067 mPa·s
same,speed of sound,[1]; 303.15 K,1448.8 ± 1.6 m/s
same,mass density,[1]; 303.15 K,940.1 ± 0.3 kg/m3
same,viscosity,[1]; 308.15 K,0.7189 ± 0.0064 mPa·s
same,speed of sound,[1]; 308.15 K,1429.1 ± 1.6 m/s
same,mass density,[1]; 308.15 K,935.6 ± 0.31 kg/m3
same,viscosity,[1]; 313.15 K,0.6851 ± 0.0061 mPa·s
same,speed of sound,[1]; 313.15 K,1411.5 ± 1.6 m/s
same,mass density,[1]; 313.15 K,931.1 ± 0.32 kg/m3
same,viscosity,[1]; 318.15 K,0.6642 ± 0.006 mPa·s
same,speed of sound,[1]; 318.15 K,1392.6 ± 1.6 m/s
same,mass density,[1]; 318.15 K,926.6 ± 0.33 kg/m3
CN(C)C=O [dimethylformamide] + C=C(C)C(=O)OC,viscosity,[2]; 288.15 K,0.9452 ± 0.0081 mPa·s
same,speed of sound,[2]; 288.15 K,1503.3 ± 1.7 m/s
same,mass density,[2]; 288.15 K,953.61 ± 0.29 kg/m3
same,viscosity,[2]; 293.15 K,0.8685 ± 0.0075 mPa·s
same,speed of sound,[2]; 293.15 K,1485.8 ± 1.7 m/s
same,mass density,[2]; 293.15 K,949.1 ± 0.28 kg/m3
same,viscosity,[2]; 298.15 K,0.8123 ± 0.0071 mPa·s
same,speed of sound,[2]; 298.15 K,1469.5 ± 1.6 m/s
same,mass density,[2]; 298.15 K,944.6 ± 0.29 kg/m3
same,viscosity,[2]; 303.15 K,0.7647 ± 0.0067 mPa·s
same,speed of sound,[2]; 303.15 K,1448.8 ± 1.6 m/s
same,mass density,[2]; 303.15 K,940.1 ± 0.3 kg/m3
same,viscosity,[2]; 308.15 K,0.7189 ± 0.0064 mPa·s
same,speed of sound,[2]; 308.15 K,1429.1 ± 1.6 m/s
same,mass density,[2]; 308.15 K,935.6 ± 0.31 kg/m3
same,viscosity,[2]; 313.15 K,0.6851 ± 0.0061 mPa·s
same,speed of sound,[2]; 313.15 K,1411.5 ± 1.6 m/s
same,mass density,[2]; 313.15 K,931.1 ± 0.32 kg/m3
same,viscosity,[2]; 318.15 K,0.6642 ± 0.006 mPa·s
same,speed of sound,[2]; 318.15 K,1392.6 ± 1.6 m/s
same,mass density,[2]; 318.15 K,926.6 ± 0.33 kg/m3
C=C(C)C(=O)OC [methyl methacrylate],viscosity,[1]; 288.15 K,0.634 ± 0.0056 mPa·s
same,speed of sound,[1]; 288.15 K,1216.8 ± 1.4 m/s
same,mass density,[1]; 288.15 K,949.1 ± 0.26 kg/m3
same,viscosity,[1]; 293.15 K,0.5903 ± 0.0053 mPa·s
same,speed of sound,[1]; 293.15 K,1200.5 ± 1.4 m/s
same,mass density,[1]; 293.15 K,943.37 ± 0.25 kg/m3
same,viscosity,[1]; 298.15 K,0.5544 ± 0.005 mPa·s
same,speed of sound,[1]; 298.15 K,1183.6 ± 1.4 m/s
same,mass density,[1]; 298.15 K,937.63 ± 0.25 kg/m3
same,viscosity,[1]; 303.15 K,0.5251 ± 0.0048 mPa·s
same,speed of sound,[1]; 303.15 K,1168.5 ± 1.4 m/s
same,mass density,[1]; 303.15 K,931.89 ± 0.26 kg/m3
same,viscosity,[1]; 308.15 K,0.496 ± 0.0046 mPa·s
same,speed of sound,[1]; 308.15 K,1152.6 ± 1.3 m/s
same,mass density,[1]; 308.15 K,926.15 ± 0.27 kg/m3
same,viscosity,[1]; 313.15 K,0.4723 ± 0.0044 mPa·s
same,speed of sound,[1]; 313.15 K,1135.4 ± 1.3 m/s
same,mass density,[1]; 313.15 K,920.41 ± 0.28 kg/m3
same,viscosity,[1]; 318.15 K,0.4499 ± 0.0042 mPa·s
same,speed of sound,[1]; 318.15 K,1118.3 ± 1.3 m/s
same,mass density,[1]; 318.15 K,914.66 ± 0.29 kg/m3
